Key:
NIH-3T3 세포 = assay: Peptide stability: storage at 40℃ in 50 mM Tris-HCl (pH 8.0), remaining activity by MTT assay; assay type: physicochemical; settings: 50 mM Tris-HCl pH 8.0, sampled at days 0-100, peptide 10 ㎍/ml, TGF-β1 1 ㎍/ml, Fig. 3
프로콜라겐 = assay: Procollagen production in NIH3T3 fibroblasts (ELISA); assay type: cell-based; settings: peptide 1 and 10 μg/ml, 72 h, Fig. 9
NIH3T3 세포 = assay: Cytotoxicity test, SRB colorimetry, NIH3T3 cells; assay type: cell-based; settings: 10 ng/ml to 100 μg/ml, 72 h, Fig. 11
타이로시나아제 = assay: Tyrosinase activity (L-DOPA, 405 nm) in lysate of B16F10 cells treated with α-MSH; assay type: cell-based, mouse; settings: peptide 1 and 10 μg/ml, 4 days, versus α-MSH alone, Fig. 6
B16F10 세포주 = assay: Cytotoxicity test, SRB colorimetry, B16F10 cells; assay type: cell-based; settings: 10 ng/ml to 100 μg/ml, 72 h, Fig. 11
피브로넥틴 = assay: Fibronectin production in NIH3T3 fibroblasts (ELISA); assay type: cell-based; settings: peptide 1 and 10 μg/ml, 72 h, Fig. 10
[1] = tested on: TRP1(tyrosinase-related protein-1); assay: RT-PCR of melanogenesis marker TRP1 in B16F10 cells treated with α-MSH; assay type: cell-based, mouse; settings: α-MSH plus peptide 10 μg/ml; 4 days; Fig. 8
C57BL/6 마우스의 멜라노사이트 = assay: Melanin production in melanocytes induced with α-MSH; assay type: cell-based, mouse; settings: α-MSH 200 μg/ml; peptide 10 μg/ml; 3 days; Fig. 4
TRP2 = assay: RT-PCR of melanogenesis marker TRP2 in B16F10 cells treated with α-MSH; assay type: cell-based, mouse; settings: α-MSH plus peptide 10 μg/ml; 4 days; Fig. 8
[2] = tested on: MITF(microphthalmia-associated transcription factor); assay: RT-PCR of melanogenesis marker MITF in B16F10 cells treated with α-MSH; assay type: cell-based, mouse; settings: α-MSH plus peptide 10 μg/ml; 4 days; Fig. 8
B16F10 세포 = assay: Microscopic observation of melanosomes in B16F10 cells treated with α-MSH; assay type: cell-based, mouse; settings: α-MSH 200 μg/ml; peptide 10 μg/ml; 4 days; Fig. 7
HaCat 세포 = assay: Cytotoxicity test, SRB colorimetry, HaCat cells; assay type: cell-based; settings: 10 ng/ml to 100 μg/ml, 72 h, Fig. 11

| Substance | remaining activity over storage time (stability) (NIH-3T3 세포) | procollagen production (프로콜라겐) | cell number / cytotoxicity (NIH3T3 세포) | decrease of tyrosinase activity (타이로시나아제) [%] | cell number / cytotoxicity (B16F10 세포주) | fibronectin production (피브로넥틴) | TRP1 expression (RT-PCR) [1] | melanin production (visual) (C57BL/6 마우스의 멜라노사이트) | TRP2 expression (RT-PCR) (TRP2) | MITF expression (RT-PCR) [2] | melanosomes induced by α-MSH (microscopy) (B16F10 세포) | cell number / cytotoxicity (HaCat 세포) |
| --- | --- | --- | --- | --- | --- | --- | --- | --- | --- | --- | --- | --- |
| 재조합 TGF-β1: 대장균으로부터 생산된 재조합 TGF-β1(Sigma), control in the stability test | 활성도가 급격히 감소됨 | – | – | – | – | – | – | – | – | – | – | – |
| NH2-Gly-Arg-Gly-Asp-Tyr-Leu-Arg-Ser-Ala-Asp-Thr-OH (H-GRGDYLRSADT-OH) [서열2 펩타이드] | 활성도가 오랫동안 지속됨 | 우수한 프로콜라겐 생성 촉진능 | 세포 수의 감소는 전혀 관찰 되지 않았으며 | ≥ 30 | 세포 수의 감소는 전혀 관찰 되지 않았으며 | 우수한 피브로넥틴 생성 촉진능 | 발현을 억제한다 | α-MSH를 처리하지 않았을 때와 유사한 멜라닌 생성 | 발현을 억제한다 | 발현을 억제한다 | 사라지는 | 세포 수의 감소는 전혀 관찰 되지 않았으며 |

— patent KR20090133069A, “형질전환 성장인자의 활성을 가지는 펩타이드 및 그의 용도” ((주)케어젠, priority 2009, dated 2009)
